Results as given in the supplement of paper PMC10307832.

Assays:
Assay in all cases: relative viability (nuclei count vs DMSO), 5 days (fraction); higher = more cells survive
ABC-1 = test system: ABC-1
How it was run: (§1)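 Lung cancer cell lines were pin-tool dosed in 1536-well plates on the day after seeding, with either a lone drug or a fixed anchor-drug dose plus five library-drug doses (not always all listed) in √10 steps. Nuclei were counted on 4× images after 5 days. Relative viability is the ratio of treated-well to vehicle-well nuclei counts, with each value a median of duplicate plates.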

ChaGo-K-1 = test system: ChaGo-K-1
How it was run: as §1

EMC-BAC-2 = test system: EMC-BAC-2
How it was run: as §1

HARA = test system: HARA
How it was run: as §1

HCC-15 = test system: HCC-15
How it was run: as §1

HCC-366 = test system: HCC-366
How it was run: as §1

HCC-78 = test system: HCC-78
How it was run: as §1

HOP-62 = test system: HOP-62
How it was run: as §1

LC-2-ad = test system: LC-2-ad
How it was run: as §1

NCI-H1395 = test system: NCI-H1395
How it was run: as §1

NCI-H1793 = test system: NCI-H1793
How it was run: as §1

NCI-H1944 = test system: NCI-H1944
How it was run: as §1

NCI-H1993 = test system: NCI-H1993
How it was run: as §1

NCI-H2126 = test system: NCI-H2126
How it was run: as §1

NCI-H23 = test system: NCI-H23
How it was run: as §1

NCI-H2405 = test system: NCI-H2405
How it was run: as §1

NCI-H358 = test system: NCI-H358
How it was run: as §1

NCI-H838 = test system: NCI-H838
How it was run: as §1

SMILES: Nc1ccn([C@@H]2O[C@H](CO)[C@@H](O)[C@@H]2O)c(=O)n1 [Cytarabine] + NC(=O)Nc1cc(-c2cccc(F)c2)sc1C(=O)N[C@H]1CCCNC1 [AZD7762] (partner 0.2 µM)
- relative viability (ABC-1; first compound 0.005 µM): 0.626
- relative viability (ABC-1; first compound 0.01581 µM): 0.899
- relative viability (ABC-1; first compound 0.05 µM): 0.745
- relative viability (ABC-1; first compound 0.1581 µM): 0.744
- relative viability (ABC-1; first compound 0.5 µM): 0.666
- relative viability (ChaGo-K-1; first compound 0.005 µM): 0.877
- relative viability (ChaGo-K-1; first compound 0.01581 µM): 0.643
- relative viability (ChaGo-K-1; first compound 0.05 µM): 0.439
- relative viability (ChaGo-K-1; first compound 0.1581 µM): 0.249
- relative viability (ChaGo-K-1; first compound 0.5 µM): 0.199
- relative viability (EMC-BAC-2; first compound 0.005 µM): 1.09
- relative viability (EMC-BAC-2; first compound 0.01581 µM): 0.97
- relative viability (EMC-BAC-2; first compound 0.05 µM): 0.674
- relative viability (EMC-BAC-2; first compound 0.1581 µM): 0.344
- relative viability (EMC-BAC-2; first compound 0.5 µM): 0.308
- relative viability (HARA; first compound 0.005 µM): 0.298
- relative viability (HARA; first compound 0.01581 µM): 0.211
- relative viability (HARA; first compound 0.05 µM): 0.176
- relative viability (HARA; first compound 0.1581 µM): 0.157
- relative viability (HARA; first compound 0.5 µM): 0.171
- relative viability (HCC-15; first compound 0.005 µM): 1.11
- relative viability (HCC-15; first compound 0.01581 µM): 1.52
- relative viability (HCC-15; first compound 0.05 µM): 1.45
- relative viability (HCC-15; first compound 0.1581 µM): 1.06
- relative viability (HCC-15; first compound 0.5 µM): 0.913
- relative viability (HCC-366; first compound 0.005 µM): 0.139
- relative viability (HCC-366; first compound 0.01581 µM): 0.0915
- relative viability (HCC-366; first compound 0.05 µM): 0.107
- relative viability (HCC-366; first compound 0.1581 µM): 0.0525
- relative viability (HCC-366; first compound 0.5 µM): 0.038
- relative viability (HCC-78; first compound 0.005 µM): 0.614
- relative viability (HCC-78; first compound 0.01581 µM): 0.779
- relative viability (HCC-78; first compound 0.05 µM): 0.486
- relative viability (HCC-78; first compound 0.1581 µM): 0.374
- relative viability (HCC-78; first compound 0.5 µM): 0.314
- relative viability (HOP-62; first compound 0.005 µM): 0.391
- relative viability (HOP-62; first compound 0.01581 µM): 0.157
- relative viability (HOP-62; first compound 0.05 µM): 0.203
- relative viability (HOP-62; first compound 0.1581 µM): 0.107
- relative viability (HOP-62; first compound 0.5 µM): 0.0888
- relative viability (LC-2-ad; first compound 0.005 µM): 0.811
- relative viability (LC-2-ad; first compound 0.01581 µM): 0.681
- relative viability (LC-2-ad; first compound 0.05 µM): 0.674
- relative viability (LC-2-ad; first compound 0.1581 µM): 0.245
- relative viability (LC-2-ad; first compound 0.5 µM): 0.208
- relative viability (NCI-H1395; first compound 0.005 µM): 0.383
- relative viability (NCI-H1395; first compound 0.01581 µM): 0.39
- relative viability (NCI-H1395; first compound 0.05 µM): 0.331
- relative viability (NCI-H1395; first compound 0.1581 µM): 0.364
- relative viability (NCI-H1395; first compound 0.5 µM): 0.351
- relative viability (NCI-H1793; first compound 0.005 µM): 0.304
- relative viability (NCI-H1793; first compound 0.01581 µM): 0.417
- relative viability (NCI-H1793; first compound 0.05 µM): 0.341
- relative viability (NCI-H1793; first compound 0.1581 µM): 0.149
- relative viability (NCI-H1793; first compound 0.5 µM): 0.111
- relative viability (NCI-H1944; first compound 0.005 µM): 0.353
- relative viability (NCI-H1944; first compound 0.01581 µM): 0.204
- relative viability (NCI-H1944; first compound 0.05 µM): 0.159
- relative viability (NCI-H1944; first compound 0.1581 µM): 0.12
- relative viability (NCI-H1944; first compound 0.5 µM): 0.135
- relative viability (NCI-H1993; first compound 0.005 µM): 0.766
- relative viability (NCI-H1993; first compound 0.01581 µM): 0.562
- relative viability (NCI-H1993; first compound 0.05 µM): 0.654
- relative viability (NCI-H1993; first compound 0.1581 µM): 0.523
- relative viability (NCI-H1993; first compound 0.5 µM): 0.523
- relative viability (NCI-H2126; first compound 0.005 µM): 0.965
- relative viability (NCI-H2126; first compound 0.01581 µM): 0.936
- relative viability (NCI-H2126; first compound 0.05 µM): 0.808
- relative viability (NCI-H2126; first compound 0.1581 µM): 0.361
- relative viability (NCI-H2126; first compound 0.5 µM): 0.267
- relative viability (NCI-H23; first compound 0.005 µM): 0.227
- relative viability (NCI-H23; first compound 0.01581 µM): 0.171
- relative viability (NCI-H23; first compound 0.05 µM): 0.202
- relative viability (NCI-H23; first compound 0.1581 µM): 0.126
- relative viability (NCI-H23; first compound 0.5 µM): 0.134
- relative viability (NCI-H2405; first compound 0.005 µM): 0.612
- relative viability (NCI-H2405; first compound 0.01581 µM): 0.454
- relative viability (NCI-H2405; first compound 0.05 µM): 0.445
- relative viability (NCI-H2405; first compound 0.1581 µM): 0.249
- relative viability (NCI-H2405; first compound 0.5 µM): 0.217
- relative viability (NCI-H358; first compound 0.005 µM): 0.419
- relative viability (NCI-H358; first compound 0.01581 µM): 0.229
- relative viability (NCI-H358; first compound 0.05 µM): 0.208
- relative viability (NCI-H358; first compound 0.1581 µM): 0.221
- relative viability (NCI-H358; first compound 0.5 µM): 0.182
- relative viability (NCI-H838; first compound 0.005 µM): 0.738
- relative viability (NCI-H838; first compound 0.01581 µM): 0.699
- relative viability (NCI-H838; first compound 0.05 µM): 0.665
- relative viability (NCI-H838; first compound 0.1581 µM): 0.652
- relative viability (NCI-H838; first compound 0.5 µM): 0.631
